Reference: patent US20260085081A1, “PHOSPHATIDYLAMINE COMPOUNDS INCLUDING A PLURALITY OF TERTIARY AMINO GROUP STRUCTURES AND COMPOSITIONS THEREOF” (PEKING UNIVERSITY, priority 2022, published 2026)

What was measured:
[1] = test system: Fluc-mRNA (luciferase expression); test: In vivo transfection efficiency of Fluc-mRNA lipid nanoparticles after intramuscular injection; set-up: species or system mice; details: for Intramuscular injection (PL/MC3) expression strength level: ratio of expression PL/MC3; for in vivo transfection (expression, FIG. 5): weight ratio lipid nanoparticle/RNA 10:1, DOPE or DSPC group; for in vivo transfection (expression, FIG. 5) / expression in vivo compared with control MC3: 3 μg Fluc-mRNA/mouse; for expression in vivo compared with control MC3 / enhancement of in vivo expression with respect to control MC3: DOPE group, weight ratio 10:1; for enhancement of in vivo expression with respect to control MC3: 3 g Fluc-mRNA/mouse
Method: 6 h after intramuscular injection of mRNA LNPs, mice were injected intraperitoneally with 0.2 mL […] (20 mg/mL PBS solution). After 10 min, mice were anesthetized with isoflurane in oxygen in a ventilated anesthesia room and imaged with an imaging system (IVIS, PerkinElmer), and luminescence was quantified using Living Image software (PerkinElmer).

[2] = test system: white adipocyte; test: White adipocyte administration, expression relative to SM102; assay type: cell-based; details: for White adipocyte administration (PL/SM102) expression strength level: ratio of expression PL/SM102; for expression compared with control SM102: white adipocyte administration
Description: (§1) Finally, the expression levels of lipid nanoparticles with a plurality of tertiary amine groups from the embodiments of the present disclosure after intramuscular injection, white adipocyte administration, and intraperitoneal injection are summarized, and compared with lipid nanoparticles prepared from commercially available cationic lipids MC3 and SM102. […] However, the expression rates of the phosphatidylamine lipids with a plurality of tertiary amine groups from embodiments of the present disclosure are higher than that of SM102.

[3] = test system: adipose tissue; test: Intraperitoneal injection of Fluc-mRNA LNPs, expression and distribution; assay type: in vivo, mice; details: for Intraperitoneal injection (PL/SM102) expression strength level: ratio of expression PL/SM102; for expression compared with control SM102: intraperitoneal injection
Method: FIG. 10 illustrates the effect of Fluc-mRNA LNPs composed of different structural cationic lipids on the mRNA delivery efficiency after intraperitoneal administration according to some embodiments of the present disclosure. Targeting and expression of PL lipids on adipose tissue after intraperitoneal administration is also evaluated. […] That is to say, the PL lipid structure with the plurality of tertiary amino group structures may enhance the selective targeting of visceral adipocytes. […]
as §1

[4] = Summary of the strongest expressions over the administration routes; details: strongest level of the three administrations
Description: as §1

Structure (SMILES)	Intramuscular injection (PL/MC3) expression strength level [1]	in vivo transfection (expression, FIG. 5) [1]	White adipocyte administration (PL/SM102) expression strength level [2]	Intraperitoneal injection (PL/SM102) expression strength level [3]	Summary of the strongest expressions [4]	expression compared with control SM102 [2]	expression compared with control SM102 [3]	expression in vivo compared with control MC3 [1]	enhancement of in vivo expression with respect to control MC3 [1]
CCCCC/C=C\C/C=C\CCCCCCCCOP(=O)(NCCCN(CCCN(CC(O)CCCCCCCCCC)CC(O)CCCCCCCCCC)CC(O)CCCCCCCCCC)OCCCCCCCC/C=C\C/C=C\CCCCC (centres unmarked) [PL18]	A (A: ≥2)	expressed	C (C: ≥0.1 and <1)	D (D: <0.1)	A (A: ≥2)				
CCCCC/C=C\C/C=C\CCCCCCCCOP(=O)(NCCN(CCN(CCN(C)C)CC(O)CCCCCCCCCC)CC(O)CCCCCCCCCC)OCCCCCCCC/C=C\C/C=C\CCCCC (centres unmarked) [PL20]			B (B: ≥1 and <2)	B (B: ≥1 and <2)	B (B: ≥1 and <2)	superior to that of the control SM102	superior to that of the control SM102		
CCCCC/C=C\C/C=C\CCCCCCCCOP(=O)(NCCCN(CCCCCCCCCCCC)CCc1ccc(CCN(C)C)cc1)OCCCCCCCC/C=C\C/C=C\CCCCC [PL21]			B (B: ≥1 and <2)	C (C: ≥0.1 and <1)	B (B: ≥1 and <2)	superior to that of the control SM102			
CCCCC/C=C\C/C=C\CCCCCCCCOP(=O)(NCCCN(CCCCCCCCCCCC)CCc1ccc(CCN(CCCCCCCCCCCC)CCCCCCCCCCCC)cc1)OCCCCCCCC/C=C\C/C=C\CCCCC [PL22]			C (C: ≥0.1 and <1)	D (D: <0.1)	C (C: ≥0.1 and <1)				
CCCCC/C=C\C/C=C\CCCCCCCCOP(=O)(NCCCN1CCN(CCCN(CC(O)CCCCCCCCCC)CC(O)CCCCCCCCCC)CC1)OCCCCCCCC/C=C\C/C=C\CCCCC (centres unmarked) [PL23]	A (A: ≥2)	expressed	C (C: ≥0.1 and <1)	C (C: ≥0.1 and <1)	A (A: ≥2)				
CCCCCCCCC(CCCCCCCC)OC(=O)CCCCCCCOP(=O)(NCCCN1CCN(CCCN(CCCCCCCC(=O)OC(CCCCCCCC)CCCCCCCC)CCCCCCCC(=O)OC(CCCCCCCC)CCCCCCCC)CC1)OCCCCCCCC(=O)OC(CCCCCCCC)CCCCCCCC [PL38]			C (C: ≥0.1 and <1)	D (D: <0.1)	C (C: ≥0.1 and <1)				
CCCCCCCCCCCCN(CCCCCCCCCCCC)CCCN1CCN(CCCNP(=O)(OCCCCCCOC(=O)C(CC)CCCC)OCCCCCCOC(=O)C(CC)CCCC)CC1 (centres unmarked) [PL53]	A (A: ≥2)	expressed	B (B: ≥1 and <2)	C (C: ≥0.1 and <1)	A (A: ≥2)	superior to that of the control SM102		better than that of control MC3	an order of magnitude enhancement
CCCCCCCCCCCCN(CCCCCCCCCCCC)CCCN1CCN(CCCNP(=O)(OCCCCCCOC(=O)C(CC)CCCCCC)OCCCCCCOC(=O)C(CC)CCCCCC)CC1 (centres unmarked) [PL54]	A (A: ≥2)	expressed	B (B: ≥1 and <2)	B (B: ≥1 and <2)	A (A: ≥2)	superior to that of the control SM102	superior to that of the control SM102		
CCCCCCCCCCCCN(CCCCCCCCCCCC)CCCN1CCN(CCCNP(=O)(OCCCCCCOC(=O)C(CCCCCC)CCCCCCCC)OCCCCCCOC(=O)C(CCCCCC)CCCCCCCC)CC1 (centres unmarked) [PL55]	A (A: ≥2)	expressed	B (B: ≥1 and <2)	B (B: ≥1 and <2)	A (A: ≥2)	superior to that of the control SM102	superior to that of the control SM102	better than that of control MC3	an order of magnitude enhancement
CCCCC/C=C\C/C=C\C/C=C\C/C=C\CCCC(=O)OCCCCCCOP(=O)(NCCCN1CCN(CCCN(CCCCCCCCCCCC)CCCCCCCCCCCC)CC1)OCCCCCCOC(=O)CCC/C=C\C/C=C\C/C=C\C/C=C\CCCCC [PL59]			A (A: ≥2)	D (D: <0.1)	A (A: ≥2)	superior to that of the control SM102			
CC/C=C\C/C=C\C/C=C\C/C=C\C/C=C\CCCC(=O)OCCCCCCOP(=O)(NCCCN1CCN(CCCN(CCCCCCCCCCCC)CCCCCCCCCCCC)CC1)OCCCCCCOC(=O)CCC/C=C\C/C=C\C/C=C\C/C=C\C/C=C\CC [PL60]			C (C: ≥0.1 and <1)	D (D: <0.1)	C (C: ≥0.1 and <1)				
CCC/C=C\C/C=C\C/C=C\C/C=C\C/C=C\C/C=C\CCC(=O)OCCCCCCOP(=O)(NCCCN1CCN(CCCN(CCCCCCCCCCCC)CCCCCCCCCCCC)CC1)OCCCCCCOC(=O)CC/C=C\C/C=C\C/C=C\C/C=C\C/C=C\C/C=C\CCC [PL61]			C (C: ≥0.1 and <1)	D (D: <0.1)	C (C: ≥0.1 and <1)				
CCCCCCCCCCC(O)CN(CCCN1CCN(CCCNP(=O)(OCCCCCCCCOC(=O)C(CC)CCCC)OCCCCCCCCOC(=O)C(CC)CCCC)CC1)CC(O)CCCCCCCCCC (centres unmarked) [PL78]			B (B: ≥1 and <2)	B (B: ≥1 and <2)	B (B: ≥1 and <2)	superior to that of the control SM102	superior to that of the control SM102		
CC/C=C\C/C=C\C/C=C\C/C=C\C/C=C\CCCC(=O)OCCCCCCOP(=O)(NCCCN1CCN(CCCN(CC(O)CCCCCCCCCC)CC(O)CCCCCCCCCC)CC1)OCCCCCCOC(=O)CCC/C=C\C/C=C\C/C=C\C/C=C\C/C=C\CC (centres unmarked) [PL79]			B (B: ≥1 and <2)	C (C: ≥0.1 and <1)	B (B: ≥1 and <2)	superior to that of the control SM102			
